Data from patent publication US8569493B2 (Santen Pharmaceutical Co., Ltd., priority 2007, dated 2013).

Target: T1, Recombinant human GR (Homo sapiens, UniProt P04150)
T1 construct: purchased Invitrogen P2816
T1 sequence (P04150 1-777): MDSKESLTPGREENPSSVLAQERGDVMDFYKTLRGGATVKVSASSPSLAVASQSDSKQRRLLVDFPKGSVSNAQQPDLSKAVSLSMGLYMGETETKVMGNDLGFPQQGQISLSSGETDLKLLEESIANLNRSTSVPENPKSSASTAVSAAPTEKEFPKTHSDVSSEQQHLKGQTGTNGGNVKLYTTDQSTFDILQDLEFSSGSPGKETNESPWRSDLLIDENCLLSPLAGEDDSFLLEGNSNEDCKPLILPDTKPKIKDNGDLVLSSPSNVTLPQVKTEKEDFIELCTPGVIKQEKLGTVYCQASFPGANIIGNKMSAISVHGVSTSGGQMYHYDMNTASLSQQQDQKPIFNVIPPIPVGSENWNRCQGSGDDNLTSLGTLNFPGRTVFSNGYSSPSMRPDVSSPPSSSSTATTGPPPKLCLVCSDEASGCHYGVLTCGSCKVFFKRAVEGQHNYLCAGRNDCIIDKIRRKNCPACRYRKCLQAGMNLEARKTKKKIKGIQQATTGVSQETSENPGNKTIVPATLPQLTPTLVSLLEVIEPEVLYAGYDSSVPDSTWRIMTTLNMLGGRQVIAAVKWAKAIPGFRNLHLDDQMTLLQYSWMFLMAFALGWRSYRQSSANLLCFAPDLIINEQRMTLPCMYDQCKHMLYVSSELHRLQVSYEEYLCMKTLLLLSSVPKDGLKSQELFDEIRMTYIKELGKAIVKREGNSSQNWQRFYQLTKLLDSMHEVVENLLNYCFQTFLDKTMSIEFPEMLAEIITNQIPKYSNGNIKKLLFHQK
Assay: GR competitor assay by fluorescence polarization (binding activity to glucocorticoid receptor)
Conditions: 20 μM test compound solution, 10 μL per well plus 5 μL 4×GS1 and 5 μL 4×GR; 2 to 4 hours at room temperature; ratio of 100% or more is indicated by 100%
Protocol: 1. Evaluation Test for Binding Activity to Glucocorticoid Receptor (hereinafter referred to as “GR”)
In order to evaluate a binding activity to GR, a receptor competitor assay was carried out by a fluorescence polarization method. In the assay, a GR competitor assay kit (manufactured by Invitrogen, cat No. P2816) was used, and a procedure was carried out according to the protocol attached to the kit. Hereinafter, the specific method will be described.
(Preparation of Reagents)
GR screening buffer: A buffer containing 10 mM potassium phosphate (pH 7.4), 20 mM sodium molybdate (Na2MoO4), 0.1 mM ethylene diamine tetraacetic acid (EDTA), 5 mM dithiothreitol (DTT), 0.1 mM stabilizing peptide and 2% dimethylsulfoxide was prepared.
4×GS1 solution: Fluormone™ GS1, which is a fluorescent glucocorticoid ligand, was diluted with GR screening buffer, whereby a 4 nM solution was prepared.
4×GR solution: Recombinant human GR was diluted with GR screening buffer, whereby a 16 nM solution was prepared.
(Preparation of Test Compound Solution)
After a test compound was dissolved in dimethylsulfoxide, it was diluted with GR screening buffer, whereby a 20 μM test compound solution was prepared.
(Test Method and Measurement Method)
1) The test compound solution was added in an amount of 10 μL into each well of a 384-well plate, and then, 4×GS1 solution and 4×GR solution were added in an amount of 5 μL into each well, respectively.
2) The plate was incubated in a dark place at room temperature for 2 to 4 hours.
3) By using a multimode plate reader, Analyst™ HT (manufactured by LJL Biosystems), fluorescence polarization of each well was measured. As the blank, a well containing GR screening buffer in place of the test compound and 4×GS1 solution was used.
4) The same procedure as that in the above 1) to 3) was carried out except that GR screening buffer was used in place of the test compound solution, and the obtained result was taken as the negative control.
5) The same procedure as that in the above 1) to 3) was carried out except that 2 mM dexamethasone was used in place of the test compound solution, and the obtained result was taken as the positive control.
(Calculation Equation of GR Binding Ratio)
A GR binding ratio (%) was calculated from the following equation. GR binding ratio(%)=100×[1−(fluorescence polarization of test compound solution−fluorescence polarization of positive control solution)/(fluorescence polarization of negative control solution−fluorescence polarization of positive control solution)] (Test Results and Discussion)

| Structure (SMILES) | inhibition at 10 µM [%] |
| --- | --- |
| COc1ccccc1NCc1c(-c2ccc(OS(=O)(=O)c3ccccc3)cc2OC)ccc2c1N(C)C(=O)C(C)(C)N2 [Compound 2-2, 8-(2-Methoxyphenylaminomethyl)-7-(2-methoxy-4-phenylsulfonyloxyphenyl)-1,3,3-trimethyl-3,4-dihydro-1H-quinoxalin-2-one] | 89 |
| COc1cc(OS(=O)(=O)C2CC2)ccc1-c1ccc2c(c1COC(=O)c1ccc(C)s1)N(C)C(=O)C(C)(C)N2 [Compound 1-32] | 96 |
| COc1cc(OS(=O)(=O)c2ccccc2)ccc1-c1ccc2c(c1COC(=O)c1ccc(C)s1)N(C)C(=O)C(C)(C)N2 [Compound 1-7] | 86 |
| COc1ccccc1NCc1c(-c2ccc(OS(=O)(=O)C3CCCC3)cc2OC)ccc2c1N(C)C(=O)C(C)(C)N2 [Compound 2-7, 7-(4-Cyclopentylsulfonyloxy-2-methoxyphenyl)-8-(2-methoxyphenylaminomethyl)-1,3,3-trimethyl-3,4-dihydro-1H-quinoxalin-2-one] | 99 |
| CCCS(=O)(=O)Oc1ccc(-c2ccc3c(c2COc2cc([N+](=O)[O-])ccc2OC)N(C)C(=O)C(C)(C)N3)c(OC)c1 [Compound 1-44] | 93 |
| COc1ccccc1NCc1c(-c2ccc(OS(C)(=O)=O)cc2OC)ccc2c1N(C)C(=O)C(C)(C)N2 [Compound 2-1, 7-(2-Methoxy-4-methylsulfonyloxyphenyl)-8-(2-methoxyphenylaminomethyl)-1,3,3-trimethyl-3,4-dihydro-1H-quinoxalin-2-one] | 95 |
| COc1cc(OS(=O)(=O)C2CC2)ccc1-c1ccc2c(c1COc1cc([N+](=O)[O-])ccc1C)N(C)C(=O)C(C)(C)N2 [Compound 1-45] | 94 |
| COc1cc(OS(=O)(=O)C2CCCC2)ccc1-c1ccc2c(c1CNc1cc(F)ccc1C)N(C)C(=O)C(C)(C)N2 [Compound 1-57] | 93 |
| COc1ccccc1NCc1c(-c2ccc(OS(=O)(=O)CCC(F)(F)F)cc2OC)ccc2c1N(C)C(=O)C(C)(C)N2 [Compound 2-4, 8-(2-Methoxyphenylaminomethyl)-7-[2-methoxy-4-(3,3,3-trifluoropropylsulfonyloxy)phenyl]-1,3,3-trimethyl-3,4-dihydro-1H-quinoxalin-2-one] | 91 |
| COc1ccc([N+](=O)[O-])cc1OCc1c(-c2ccc(OS(=O)(=O)C(C)C)cc2OC)ccc2c1N(C)C(=O)C(C)(C)N2 [Compound 1-42] | 100 |
| COc1ccccc1NCc1c(-c2ccc(OS(=O)(=O)C3CC3)cc2OC)ccc2c1N(C)C(=O)C(C)(C)N2 [Compound 2-3] | 93 |
| COc1cc(OS(=O)(=O)CCCN2CCOCC2)ccc1-c1ccc2c(c1COc1cc(F)ccc1C)N(C)C(=O)C(C)(C)N2 [Compound 3-3, 8-(5-Fluoro-2-methylphenoxymethyl)-7-[2-methoxy-4-[3-(morpholin-4-yl)propylsulfonyloxy]phenyl]-1,3,3-trimethyl-3,4-dihydro-1H-quinoxalin-2-one] | 100 |
| COc1ccccc1NCc1c(-c2ccc(OS(=O)(=O)CC(C)C)cc2OC)ccc2c1N(C)C(=O)C(C)(C)N2 [Compound 2-5, 7-(4-Isobutylsulfonyloxy-2-methoxyphenyl)-8-(2-methoxyphenylaminomethyl)-1,3,3-trimethyl-3,4-dihydro-1H-quinoxalin-2-one] | 97 |
| CCCNCCCS(=O)(=O)Oc1ccc(-c2ccc3c(c2COc2cc(F)ccc2C)N(C)C(=O)C(C)(C)N3)c(OC)c1 [Compound 3-2, 8-(5-Fluoro-2-methylphenoxymethyl)-7-[2-methoxy-4-(3-propylaminopropylsulfonyloxy)phenyl]-1,3,3-trimethyl-3,4-dihydro-1H-quinoxalin-2-one] | 100 |
| COc1cc(OS(=O)(=O)CCC(F)(F)F)ccc1-c1ccc2c(c1COC(=O)c1ccc(C)s1)N(C)C(=O)C(C)(C)N2 [Compound 1-33] | 95 |
| COc1cc(OS(=O)(=O)CCCN2CCCCC2)ccc1-c1ccc2c(c1COc1cc(F)ccc1C)N(C)C(=O)C(C)(C)N2 [Compound 3-4] | 71 |
| COc1ccc([N+](=O)[O-])cc1OCc1c(-c2ccc(OS(=O)(=O)CC(C)C)cc2OC)ccc2c1N(C)C(=O)C(C)(C)N2 [Compound 1-40] | 100 |

Second part, the compound after the results:

| inhibition at 10 µM [%] | Structure (SMILES) |
| --- | --- |
| 92 | COc1cc(OS(=O)(=O)CC(C)C)ccc1-c1ccc2c(c1COc1cc(F)ccc1C)N(C)C(=O)C(C)(C)N2 [Compound 1-21] |
| 83 | COc1cc(OS(=O)(=O)c2ccccc2C)ccc1-c1ccc2c(c1COc1cc(F)ccc1C)N(C)C(=O)C(C)(C)N2 [Compound 1-11] |
| 95 | COc1cc(OS(=O)(=O)c2ccccc2F)ccc1-c1ccc2c(c1COc1cc(F)ccc1C)N(C)C(=O)C(C)(C)N2 [Compound 1-26] |
| 100 | CCCCS(=O)(=O)Oc1ccc(-c2ccc3c(c2COc2cc(F)ccc2C)N(C)C(=O)C(C)(C)N3)c(OC)c1 [Compound 1-12] |
| 85 | COc1cc(OS(=O)(=O)c2ccccc2)ccc1-c1ccc2c(c1COc1cc(F)ccc1C)N(C)C(=O)C(C)(C)N2 [Compound 1-2] |
| 94 | COc1cc(OS(=O)(=O)C2CC2)ccc1-c1ccc2c(c1COc1cc(F)ccc1C)N(C)C(=O)C(C)(C)N2 [Compound 1-23] |
| 91 | COc1cc(OS(=O)(=O)Cc2ccc(C)cc2)ccc1-c1ccc2c(c1COc1cc(F)ccc1C)N(C)C(=O)C(C)(C)N2 [Compound 1-19] |
| 91 | COc1cc(OS(=O)(=O)CCC(F)(F)F)ccc1-c1ccc2c(c1COc1cc(F)ccc1C)N(C)C(=O)C(C)(C)N2 [Compound 1-22] |
| 99 | COc1cc(OS(=O)(=O)CCCCl)ccc1-c1ccc2c(c1COc1cc(F)ccc1C)N(C)C(=O)C(C)(C)N2 [Compound 1-54, 7-[4-(3-chloropropylsulfonyloxy)-2-methoxyphenyl]-8-(5-fluoro-2-methylphenoxymethyl)-1,3,3-trimethyl-3,4-dihydro-1H-quinoxalin-2-one] |
| 90 | COc1cc(OS(=O)(=O)Cc2cccc(C)c2)ccc1-c1ccc2c(c1COc1cc(F)ccc1C)N(C)C(=O)C(C)(C)N2 [Compound 1-31] |
| 99 | CCCS(=O)(=O)Oc1ccc(-c2ccc3c(c2COc2cc(F)ccc2C)N(C)C(=O)C(C)(C)N3)c(OC)c1 [Compound 1-4] |
| 65 | COc1cc(OS(=O)(=O)c2ccc(Cl)cc2)ccc1-c1ccc2c(c1COc1cc(F)ccc1C)N(C)C(=O)C(C)(C)N2 [Compound 1-17] |
| 100 | COC(=O)CCS(=O)(=O)Oc1ccc(-c2ccc3c(c2COc2cc(F)ccc2C)N(C)C(=O)C(C)(C)N3)c(OC)c1 [Compound 1-10] |
| 92 | COc1cc(OS(=O)(=O)C2CCCCC2)ccc1-c1ccc2c(c1COc1cc(F)ccc1C)N(C)C(=O)C(C)(C)N2 [Compound 1-30] |
| 100 | CCS(=O)(=O)Oc1ccc(-c2ccc3c(c2COc2cc(F)ccc2C)N(C)C(=O)C(C)(C)N3)c(OC)c1 [Compound 1-13] |
| 88 | COc1cc(OS(=O)(=O)Cc2cccc(Cl)c2)ccc1-c1ccc2c(c1COc1cc(F)ccc1C)N(C)C(=O)C(C)(C)N2 [Compound 1-18] |
